Experimental data taken from patent publication US8486381B2, “Methods of modulating intestinal fluid balance” (Amgen Inc., priority 2005, dated 2013).

System: cyclic GMP
Test: Secretagogue-stimulated cyclic GMP accumulation in colonic crypt cell suspensions
Assay type: cell-based

## [Ca+2] [Ca^2+]
  Effect on Guanylin or STa induced cyclic GMP production: attenuates
